The source made the active and inactive calls. How the calls were made is not given here.
Molecular target: Peptidyl-prolyl cis-trans isomerase FKBP1A (Homo sapiens) (UniProt P62942)
Assay: FKBP12 binders, biophysical, NMR detection (AID 608)
Conditions: NMR binding, purified FKBP12

Sequence of Peptidyl-prolyl cis-trans isomerase FKBP1A (Homo sapiens) (P62942 whole entry, looked up): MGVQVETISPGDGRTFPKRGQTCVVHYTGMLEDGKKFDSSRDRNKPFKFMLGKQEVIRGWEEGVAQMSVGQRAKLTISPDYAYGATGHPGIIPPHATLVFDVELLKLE

| Structure (SMILES) | Kd |
| --- | --- |
| OCc1cc(F)cc2c1OCOC2 | > 4 mM (inactive) |
| Cc1cc(NC(=O)CCCn2cnc([N+](=O)[O-])n2)no1 | > 4 mM (inactive) |
| c1cc2n(c1)CCNC2c1ccncc1 (stereo unspecified) | > 4 mM (inactive) |
| N=Cc1c(O)n(-c2cccc(Cl)c2)c(=O)[nH]c1=O | > 4 mM (inactive) |
| c1ccc2[nH]c(SCc3cscn3)nc2c1 | inactive |
| Cc1ccccc1NC(=O)c1ocnc1C | > 4 mM (inactive) |
| CCC(C)C(=O)O[C@@H]1C[C@@]2(C)[C@H](c3ccoc3)OC(=O)CC23OC2(C)O[C@]14[C@]1(C)[C@@H](CC(=O)OC)C5(C)CC1(O)[C@](O)(C5OC(=O)C1(C)OC1C)[C@@H](OC(C)=O)[C@]34O2 (stereo partly specified) | > 4 mM (inactive) |
| O=C(O)[C@H](O)[C@@](O)(Cc1ccc(O)cc1)C(=O)O | > 4 mM (inactive) |
| NC(=O)NC1NC(=O)NC1=O (stereo unspecified) | > 4 mM (inactive) |
| CC(=O)O[C@@H]1CC2C(C)(C)[C@H](O)CC[C@]2(C)C2CC[C@@]3(C)[C@H](c4ccoc4)OC(=O)C4OC43[C@@]21C (stereo partly specified) | > 4 mM (inactive) |
| Cc1ccc(C)n1-c1ccc(C(=O)N2CCOCC2)cc1 | > 4 mM (inactive) |
| Cc1ccc2cc(N)ccc2n1 | > 4 mM (inactive) |
| CCOC(=O)N1CCCC1c1cccnc1 (stereo unspecified) | > 4 mM (inactive) |
| Cc1cc(C(=O)N2CCOCC2)c(C)o1 | > 4 mM (inactive) |
| Cc1ccc(-c2c(C)n([O-])c3c([n+]2=O)CCCC3)o1 | > 4 mM (inactive) |
| CC(=O)NC1=C(N(C)C)C(=O)c2ccccc2C1=O | > 4 mM (inactive) |
| Cc1c(CCO)c(=O)n2c([nH]c3ccccc32)c1C#N | > 4 mM (inactive) |
| Nc1ccc(C2SCCS2)cc1 | > 4 mM (inactive) |
| CC(=O)c1cccc(NC(=O)NN2CCOCC2)c1 | > 4 mM (inactive) |
| C=C[C@@H](C1=CC(=O)C(OC)=C(OC)C1=O)c1ccccc1 | > 4 mM (inactive) |
| COc1ccccc1C(=O)NC1CCN(C)CC1 | > 4 mM (inactive) |
| Cc1cc(NC(=O)c2c(F)c(F)c(F)c(F)c2F)no1 | > 4 mM (inactive) |
| O=C(CN1CCOCC1)Nc1nccs1 | > 4 mM (inactive) |
| CC1CN(C(=O)C(Sc2ccccc2)c2ccccc2)CC(C)O1 (stereo unspecified) | inactive |

| Structure (SMILES) | Kd |
| --- | --- |
| C[n+]1cc2c3c(ccc2c2ccc4cc5c(cc4c21)OCO5)OCO3 | > 4 mM (inactive) |
| NC(=O)CS(=O)(=O)c1ccc(Cl)cc1 | > 4 mM (inactive) |
| Nc1cc(N)nc(SCc2cccnc2)n1 | > 4 mM (inactive) |
| Cc1cc(OCC(=O)N2CC(C)OC(C)C2)cc(C)c1Cl (stereo unspecified) | > 4 mM (inactive) |
| OC[C@H]1O[C@@H](n2cnc3c(NCc4ccco4)ncnc32)[C@H](O)[C@@H]1O | > 4 mM (inactive) |
| COC[C@]12CN(C=O)C3[C@@H]4[C@H](OC)C1[C@]3(C1CC3(O)C(OC)C(O)C4(OC(C)=O)C1C3OC(=O)c1ccccc1)[C@@H](OC)C[C@H]2O (stereo partly specified) | > 4 mM (inactive) |
| COc1ccc(/C=C2/NC(=S)NC2=O)cc1 | > 4 mM (inactive) |
| OC1CCC(C(F)(F)F)CC1 (stereo unspecified) | > 4 mM (inactive) |
| Nc1ccccc1-n1cccn1 | > 4 mM (inactive) |
| CC[C@@H]1[C@@H](O)N2C3C[C@H]1C1C(O)[C@]4(C[C@@H]12)c1ccccc1N(C)[C@@H]34 (stereo partly specified) | > 4 mM (inactive) |
| CNS(=O)(=O)c1cc(OC)ccc1OC | > 4 mM (inactive) |
| C/C(=N\NC(N)=S)C(=O)O | > 4 mM (inactive) |
| O=c1cc(O)nc(SCc2ccccc2)[nH]1 | > 4 mM (inactive) |
| O=c1cc(-c2ccccc2)oc2cc(O)cc(O)c12 | > 4 mM (inactive) |
| CC(=O)NCCc1cc2ccc(C)c(C)c2[nH]c1=O | > 4 mM (inactive) |
| Cc1nnc(NCCCO)[nH]c1=O | > 4 mM (inactive) |
| Cc1cccc(C(C)C)c1NC(=O)c1cccnc1 | > 4 mM (inactive) |
| COc1ccc(-c2coc3cc(O)ccc3c2=O)c(O)c1O | > 4 mM (inactive) |
| CCC(C)C(NC)C(=O)O (stereo unspecified) | > 4 mM (inactive) |
| O=P1(O)c2ccccc2Nc2ccccc21 | > 4 mM (inactive) |
| CC(=O)NC(=S)Nc1ccc(S(N)(=O)=O)cc1 | > 4 mM (inactive) |
| C=CCn1c(N)c(C(=O)N2CCOCC2)sc1=S | > 4 mM (inactive) |
| Cc1nc(CC(=O)O)c(-c2ccccc2)s1 | > 4 mM (inactive) |
| COc1cccc(Oc2ccc(N)cc2)c1 | > 4 mM (inactive) |

| Structure (SMILES) | Kd |
| --- | --- |
| CC(=O)O[C@@H]1c2c(ccc3ccc(=O)oc23)OC(C)(C)[C@@H]1OC(=O)CC(C)C | > 4 mM (inactive) |
| N#Cc1c[nH]n2c(=O)cc(Cc3ccccc3)nc12 | > 4 mM (inactive) |
| NCc1c[nH]c2ccccc12 | > 4 mM (inactive) |
| C=Cc1c(C)c2cc3[nH]c(cc4nc(cc5nc(cc1[nH]2)C(C)=C5CCC(=O)O)C(CCC(=O)O)=C4C)c(C)c3C=C | > 4 mM (inactive) |
| C[N+](C)(C)CC(=O)[O-] | > 4 mM (inactive) |
| Cc1ccccc1NC(=O)CC1SC(N)=NC1=O (stereo unspecified) | > 4 mM (inactive) |
| CCN=Cc1c(O)n(-c2ccccc2C)c(=O)[nH]c1=O | > 4 mM (inactive) |
| CCC(=O)Nc1cccc(NC(C)=O)c1 | > 4 mM (inactive) |
| Cc1ccc2nc(NC(=O)CN3CCOCC3)sc2c1 | > 4 mM (inactive) |
| CC(C)=CCOc1cc2oc(=O)ccc2cc1O | > 4 mM (inactive) |
| O=C(C1CCCCC1)N1CCN(c2ccccc2F)CC1 | > 4 mM (inactive) |
| CN1CCN(c2nc3c(c(=O)[nH]2)CCCC3)CC1 | > 4 mM (inactive) |
| CC(C)c1ccccc1NC(=O)c1cnccn1 | > 4 mM (inactive) |
| C/C(N)=C/C(=O)N1CCCCC1 | > 4 mM (inactive) |
| O=C(O)c1ccc2snnc2c1 | > 4 mM (inactive) |
| O=S(=O)(N1CCCCC1)n1c(Cc2ccccc2)nc2ccccc21 | > 4 mM (inactive) |
| O=C1C=C(Nc2ccccc2O)c2ccccc2C1=O | > 4 mM (inactive) |
| O=C1c2ccncc2C(=O)N1CNc1ccccn1 | > 4 mM (inactive) |
| CCCC(=O)N1CCSCC1 | > 4 mM (inactive) |
| O=C1C2C3C=CC(O3)C2C(=O)N1c1ccccc1 (stereo unspecified) | > 4 mM (inactive) |
| Cn1c(=O)n(-c2cccc(Cl)c2)c(=O)n1C | > 4 mM (inactive) |
| N#Cc1nc(N2CCCCC2)nc(N2CCOCC2)n1 | > 4 mM (inactive) |
| NCc1csc(-c2ccccc2)n1 | > 4 mM (inactive) |
| Cc1cc(=O)c2c(O)c(C)c(O)cc2o1 | > 4 mM (inactive) |

| Structure (SMILES) | Kd |
| --- | --- |
| CCN(CC)S(=O)(=O)c1cccc2nsnc12 | > 4 mM (inactive) |
| COc1cc([C@@H]2c3cc4c(cc3[C@H](OC(C)=O)[C@H]3COC(=O)[C@@H]23)OCO4)cc(OC)c1OC | > 4 mM (inactive) |
| O=C1N=c2ccccc2=C1c1[nH]c(=S)[nH]c1O | > 4 mM (inactive) |
| CSc1n[nH]c(NCc2ccccc2)n1 | > 4 mM (inactive) |
| CC(=O)c1ccc(Cc2cnc(N)s2)cc1 | > 4 mM (inactive) |
| Cc1ccc(/C=N/NC(N)=O)o1 | > 4 mM (inactive) |
| Nc1cccc2nonc12 | > 4 mM (inactive) |
| NS(=O)(=O)c1ccc(N2CCCC2=O)cc1 | > 4 mM (inactive) |
| CN1CCCn2c1nc1c2c(=O)[nH]c(=O)n1C | > 4 mM (inactive) |
| CCN(CC)S(=O)(=O)c1ccc(F)cc1 | > 4 mM (inactive) |
| Clc1ccc(-c2nnc3ccccn23)cc1 | > 4 mM (inactive) |
| O=C(O)c1cc2ccccc2o1 | > 4 mM (inactive) |
| O=C1CC[C@]23/C=C/C(=O)NCCCCNCCCNC(=O)/C=C/c4ccc(c2c4)O[C@@H]3C1 | > 4 mM (inactive) |
| O=C1CSC(=Nc2ccccc2[N+](=O)[O-])N1 | > 4 mM (inactive) |
| CN(C)C(=S)Nc1ccccc1N1CCOCC1 | > 4 mM (inactive) |
| O=C1NC(=S)N/C1=C/c1ccc(O)c(Cl)c1 | > 4 mM (inactive) |
| Nc1ncnc(NC2CCS(=O)(=O)C2)c1[N+](=O)[O-] (stereo unspecified) | > 4 mM (inactive) |
| Cc1ccc(CCNc2ccccc2)c[n+]1[O-] | > 4 mM (inactive) |
| Cn1cnnc1Sc1ncnc(N)c1[N+](=O)[O-] | > 4 mM (inactive) |
| Nc1nc2[nH]c(=O)c(=O)[nH]c2c(=O)[nH]1 | > 4 mM (inactive) |
| O=C1CSC2=NCCCN12 | > 4 mM (inactive) |
| CC(=O)Nc1ccc(C)cc1NC(C)=O | > 4 mM (inactive) |
| CC(CCC(=O)O)[C@H]1CCC2C3CC[C@@H]4CCCC[C@]4(C)C3CC[C@@]21C (stereo partly specified) | > 4 mM (inactive) |
| CNC(=O)c1c(O)c2ccccc2[nH]c1=O | > 4 mM (inactive) |

| Structure (SMILES) | Kd |
| --- | --- |
| O=C(COc1ccccc1F)N1CCOCC1 | inactive |
| COC(=O)C[C@H]1C(C)(C)C(=O)[C@@H]2CC3=C(CC[C@]4(C)C3=CC(=O)O[C@H]4c3ccoc3)C1(C)C2=O | > 4 mM (inactive) |
| Cc1ccc(-n2ncc(C#N)c2/N=C/N(C)C)cc1 | > 4 mM (inactive) |
| NC(=O)C1CCN(C(=O)CN2CCc3ccccc32)CC1 | > 4 mM (inactive) |
| CC(=O)Oc1cccc2ccc(=O)[nH]c12 | > 4 mM (inactive) |
| NCc1csc2ccccc12 | > 4 mM (inactive) |
| CC[C@@]1(O)C(=O)OCc2c1cc1n(c2=O)Cc2cc3ccccc3nc2-1 | > 4 mM (inactive) |
| CC(=O)NS(=O)(=O)c1ccc(C)cc1 | > 4 mM (inactive) |
| Nc1ccc(NS(=O)(=O)c2ccc(N)cc2)cc1 | > 4 mM (inactive) |
| Cn1cnc2ccc([N+](=O)[O-])cc2c1=O | > 4 mM (inactive) |
| NC(=O)N1CCc2ccccc21 | > 4 mM (inactive) |
| Cc1ccc(S(C)(=O)=O)s1 | > 4 mM (inactive) |
| COc1cc(S(=O)(=O)Nc2cccnc2)ccc1F | > 4 mM (inactive) |
| CC(C)(C)c1ccc(SCC(N)=O)cc1 | 0.455 mM |
| O=C(Nc1ccccn1)C(=O)N1CCCC1 | > 4 mM (inactive) |
| COc1ccc2nc(SCC(N)=O)[nH]c2c1 | > 4 mM (inactive) |
| c1ccc(-c2noc(-c3ccco3)n2)nc1 | > 4 mM (inactive) |
| Cc1ccc(CNc2ccc(O)cc2)cc1 | > 4 mM (inactive) |
| COc1ccc(-c2cc(=O)c3c(O)cc(O)c(-c4cc(-c5cc(=O)c6c(O)cc(O)cc6o5)ccc4OC)c3o2)cc1 | > 4 mM (inactive) |
| CSc1ccn(CCC(=O)O)c(=O)n1 | > 4 mM (inactive) |
